Measurements from publication PMC6311682, “Design, Synthesis, and Biological Evaluation of 2-Nitroimidazopyrazin-one/-es with Antitubercular and Antiparasitic Activity” (Journal of Medicinal Chemistry, 2018).
≈ marks a conversion by molar mass, not a printed value. Read-outs that look alike come from different tables or passages of the source.

Columns and labels:
[1] = system: C. difficile (630, ATCC BAA-1382); experiment: Broth microdilution MIC assay, C. difficile; assay type: cell-based, Clostridium difficile; conditions: 630 ATCC BAA-1382, median MIC; for MIC: Clostridioides difficile, ATCCBAA1382, read-out: antibacterial MIC C. difficile
[2] = system: L. donovani MHOM/IN/80/DD8 (ATCC50212); experiment: L. donovani DD8 intracellular (THP-1) amastigote assay; assay type: cell-based; conditions: Leishmania donovani
[3] = Plasma protein binding, ultrafiltration method; assay type: in vitro ADME; conditions: human plasma, % bound, read-out: PPB (%) (converted)
[4] = system: C. albicans (ATCC 90028) and C. neoformans (H99, ATCC 208821); experiment: Broth microdilution MIC assay, fungi; assay type: cell-based; conditions: for MIC: Candida albicans, read-out: antifungal MIC
[5] = Kinetic solubility determination by LC-UV; conditions: room temperature, 1% DMSO
[6] = Mammalian cytotoxicity assay (resazurin), HEK293; conditions: human, HEK293 cells
[7] = Mammalian cytotoxicity assay (resazurin), HepG2; conditions: human, HepG2 cells
[8] = Broth microdilution MIC assay, ESKAPE pathogens; assay type: cell-based; conditions: S. aureus, E. coli, K. pneumoniae, A. baumannii, P. aeruginosa; read-out: antibacterial MIC ESKAPE
[9] = system: ESKAPE pathogens S. aureus (ATCC 43300), E. coli (ATCC 25922), K. pneumoniae (ATCC 700603), A. baumannii (ATCC 19606), P. aeruginosa (ATCC 27853); experiment: Broth microdilution MIC assay, ESKAPE pathogens; assay type: cell-based
[10] = system: HepG2 cells; parameters: method as in Jarrad et al. 2; conditions: ATCC HB-8065; ref Jarrad et al. 2; read-out: cytotoxicity CC50 HepG2; cited from earlier work
[11] = system: HEK293 cells; parameters: method as in Jarrad et al. 2; conditions: ATCC CRL-1573; ref Jarrad et al. 2; read-out: cytotoxicity CC50 HEK 293; cited from earlier work
[12] = system: T. b. brucei (strain 427, BS427); experiment: 384-well resazurin viability assay, T. b. brucei bloodstream parasites; assay type: cell-based; conditions: Trypanosoma brucei, BS427, n = 2; read-out: antiparasitic IC50 T. b. brucei
[13] = Caco-2 monolayer bidirectional permeability assay; conditions: human, Caco-2, pH 7.4
[14] = system: G. lamblia (WB line); experiment: ATP-bioluminescence cell growth and survival assay, G. lamblia trophozoites; assay type: cell-based; conditions: Giardia duodenalis, read-out: antiparasitic IC50 G. lamblia
[15] = system: E. histolytica (HM1:IMSS); experiment: ATP-bioluminescence cell growth and survival assay, E. histolytica trophozoites; assay type: cell-based; conditions: Entamoeba histolytica
[16] = system: M. tuberculosis (H37Rv); experiment: M. tuberculosis H37Rv resazurin reduction microplate MIC assay, normoxic conditions; assay type: cell-based; conditions: Mycobacterium tuberculosis, normoxia, read-out: antibacterial MIC M. tuberculosis normoxia
[17] = system: M. tuberculosis (H37Rv); experiment: M. tuberculosis H37Rv resazurin reduction microplate MIC assay, hypoxic conditions (0.1% oxygen); assay type: cell-based, Mycobacterium tuberculosis; conditions: Mycobacterium tuberculosis; H37Rv, hypoxia (0.1% oxygen); read-out: antibacterial MIC M. tuberculosis hypoxia
[18] = read-out: antiparasitic IC50 L. donovani
[19] = read-out: antiparasitic pIC50 ± SE L. donovani (converted)
[20] = PBS, pH 7.4, Solubility µM (PBS), PBS pH 7.4, 24 h
[21] = water, Solubility µM (H2O), 24 h

Compound: Cc1cn2cc([N+](=O)[O-])nc2c(=O)n1Cc1ccc(OC(F)(F)F)cc1 [25f, 6-Methyl-2-nitro-7-(4-(trifluoromethoxy)benzyl)imidazo[1,2-a]pyrazin-8(7H)-one]
- antibacterial MIC C. difficile [1]: >64 µg/mL
- MIC [1]: > 64 µg/mL
- IC50 [2, 18]: > 80 µM
- IC50 [2, 19]: > 79.4 µM
- fraction unbound at 0.5 h, 5 µM [3]: 0.02
- antifungal MIC [4]: >32 µg/mL
- MIC [4]: > 32 µg/mL
- solubility at 24 h [5, 20]: < 5 µM
- solubility at 24 h [5, 21]: < 5 µM
- CC50 at 24 h [6]: > 100 µM
- CC50 at 24 h [7]: > 100 µM
- MIC [8]: > 32 µg/mL
- antibacterial MIC ESKAPE [9]: >32 µg/mL

Compound: O=c1c2nc([N+](=O)[O-])cn2ccn1Cc1ccc(F)cc1 [17e, 7-(4-Fluorobenzyl)-2-nitroimidazo[1,2-a]pyrazin-8(7H)-one]
- IC50 [2, 18]: > 80 µM
- IC50 [2, 19]: > 79.4 µM
- fraction unbound at 0.5 h, 5 µM [3]: 0.18
- solubility at 24 h [5, 20]: < 5 µM
- solubility at 24 h [5, 21]: < 5 µM
- MIC [8]: > 32 µg/mL
- antibacterial MIC ESKAPE [9]: >32 µg/mL

Compound: Cc1ncc([N+](=O)[O-])n1CCO [metronidazole 1, metronidazole, reference compound]
- CC50 [10]: > 100 µM
- MIC [4]: > 32 µg/mL
- CC50 at 24 h [6]: > 100 µM
- CC50 at 24 h [7]: > 100 µM
- MIC [8]: > 32 µg/mL
- CC50 [11]: > 100 µM

Compound: CC(=O)OCCn1c(C)cn2cc([N+](=O)[O-])nc2c1=O [25b, 2-(6-Methyl-2-nitro-8-oxoimidazo[1,2-a]pyrazin-7(8H)-yl)ethyl Acetate]
- antibacterial MIC C. difficile [1]: >64 µg/mL
- MIC [1]: > 64 µg/mL
- IC50 [2, 18]: > 80 µM
- IC50 [2, 19]: > 79.4 µM
- antifungal MIC [4]: >32 µg/mL
- MIC [4]: > 32 µg/mL
- solubility at 24 h [5, 20]: > 200 µM
- solubility at 24 h [5, 21]: > 200 µM
- CC50 at 24 h [6]: > 100 µM
- CC50 at 24 h [7]: > 100 µM
- MIC [8]: > 32 µg/mL
- antibacterial MIC ESKAPE [9]: >32 µg/mL
- IC50 [12]: < 1 µM

Compound: CC(=O)OCCn1c(-c2ccccc2)cn2cc([N+](=O)[O-])nc2c1=O [24b, 2-(2-Nitro-8-oxo-6-phenylimidazo[1,2-a]pyrazin-7(8H)-yl)ethyl Acetate]
- MIC [1]: 64 µg/mL
- IC50 [2, 18]: > 80 µM
- IC50 [2, 19]: > 79.4 µM
- antifungal MIC [4]: >32 µg/mL
- MIC [4]: > 32 µg/mL
- solubility at 24 h [5, 20]: 187 ± 17.4 µM
- solubility at 24 h [5, 21]: 164 ± 7.57 µM
- CC50 at 24 h [6]: > 100 µM
- CC50 at 24 h [7]: > 100 µM
- MIC [8]: > 32 µg/mL
- antibacterial MIC ESKAPE [9]: >32 µg/mL
- IC50 [12]: < 1 µM

Compound: O=c1c2nc([N+](=O)[O-])cn2ccn1Cc1cccc(OC(F)(F)F)c1 [17f, 2-Nitro-7-(3-(trifluoromethoxy)benzyl)imidazo[1,2-a]pyrazin-8(7H)-one]
- Papp A→B at 2 h, 2 µM [13]: 24 ×10⁻⁶ cm/s
- Papp A→B at 2 h, 2 μM [13]: > 20 ×10⁻⁶ cm/s
- Papp B→A at 2 h, 2 µM [13]: 24 ×10⁻⁶ cm/s
- IC50 [2, 18]: > 80 µM
- IC50 [2, 19]: > 79.4 µM
- fraction unbound at 0.5 h, 5 µM [3]: 0.01
- solubility at 24 h [5, 20]: < 5 µM
- solubility at 24 h [5, 21]: < 5 µM
- MIC [8]: > 32 µg/mL
- antibacterial MIC ESKAPE [9]: > 32 µg/mL

Compound: CN(C)C(=O)c1nc([N+](=O)[O-])cn1Cc1ccc(OC(F)(F)F)cc1 [28h]
- CC50 [10]: > 100 µM
- CC50 [11]: > 100 µM

Compound: NC(=O)c1nc([N+](=O)[O-])cn1Cc1ccc(OC(F)(F)F)cc1 [28c]
- CC50 [10]: > 100 µM
- CC50 [11]: > 100 µM

Compound: O=c1c2nc([N+](=O)[O-])cn2ccn1CCc1ccc(OC(F)(F)F)cc1 [17m, 2-Nitro-7-(4-(trifluoromethoxy)phenethyl)imidazo[1,2-a]pyrazin-8(7H)-one]
- MIC [1]: 64 µg/mL (≈ 174 µM)
- IC50 [14]: 1.6 to 3.2 µM
- IC50 [2, 18]: > 80 µM
- IC50 [2, 19]: > 79.4 µM
- IC50 ([15]; read-out: antiparasitic IC50 E. histolytica): > 50 µM
- IC50 ([15]; read-out: antiparasitic pIC50 ± SE E. histolytica (converted)): > 50.1 µM
- MIC [16]: 8 µg/mL (≈ 21.7 µM)
- solubility at 24 h [5, 20]: < 5 µM
- solubility at 24 h [5, 21]: < 5 µM
- MIC [8]: > 32 µg/mL
- antibacterial MIC ESKAPE [9]: >32 µg/mL

Compound: NC(=O)c1ncc([N+](=O)[O-])[nH]1 [16a]
- CC50 [10]: > 100 µM
- MIC [16]: > 32 µg/mL
- MIC [17]: > 32 µg/mL
- CC50 [11]: > 100 µM

Compound: NC(=O)c1nc([N+](=O)[O-])cn1Cc1cccc(OC(F)(F)F)c1 [28f]
- CC50 [10]: > 100 µM
- CC50 [11]: > 100 µM
